Source: ChEMBL document CHEMBL4602676, “Discovery and Development of 3-(6-Chloropyridine-3-yloxymethyl)-2-azabicyclo[3.1.0]hexane Hydrochloride (SUVN-911): A Novel, Potent, Selective, and Orally Active Neuronal Nicotinic Acetylcholine α4β2 Receptor Antagonist for the Treatment of Depression” (J Med Chem, 2020)

How the values were obtained:
[1] = biological target: Neuronal acetylcholine receptor; alpha4/beta2 (Homo sapiens, UniProt P17787+P43681); assay: Displacement of [3H]cytisine from human alpha4beta2 nAChR expressed in CHOK1 cell membrane by microbeta scintillation counting method; type: cell membranes, CHO-K1
[2] = biological target: Neuronal acetylcholine receptor; alpha3/beta4 (Homo sapiens, UniProt P30926+P32297); assay: Displacement of [3H]epibatidine from human alpha3beta4 nAChR expressed in IMR32 cell membrane by microbeta scintillation counting method; type: cell membranes, IMR-32
[3] = Cmax in Wistar rat at 10 ml/kg, po or 2 ml/kg, iv measured upto 24 hrs by LC-MS/MS analysis; type: ADME, organism-based; details: in vivo
[4] = biological target: Cytochrome P450 2D6 (Homo sapiens, UniProt P10635); assay: Inhibition of CYP2D6 in human liver microsomes using dextromethorphan as substrate incubated for 12 min in presence of NADPH by LC-MS/MS analysis; type: ADME
[5] = biological target: Cytochrome P450 3A4 (Homo sapiens, UniProt P08684); assay: Inhibition of CYP3A4 in human liver microsomes using midazolam as substrate incubated for 2 min in presence of NADPH by LC-MS/MS analysis; type: ADME
[6] = Metabolic stability in human liver microsomes assessed as compound metabolism incubated for 30 mins in presence of NADPH by LC-MS/MS analysis; type: ADME, Microsome; details: read-out: Drug metabolism
[7] = Metabolic stability in rat liver microsomes assessed as compound metabolism incubated for 30 mins in presence of NADPH by LC-MS/MS analysis; type: ADME, Microsome; details: read-out: Drug metabolism
[8] = Ratio of drug level in brain to plasma in Wistar rat at 10 ml/kg, po or 2 ml/kg, iv measured upto 24 hrs by LC-MS/MS analysis; type: ADME, organism-based; details: brain and plasma, read-out: BPR
[9] = Half life in Wistar rat at 10 ml/kg, po or 2 ml/kg, iv measured upto 24 hrs by LC-MS/MS analysis; type: ADME, organism-based; details: in vivo
[10] = system: Rattus norvegicus; assay: Antidepressant activity in Wistar rat assessed as immobility time at 10.0 mg/kg, po measured for 5 mins by forced swim test (reference value: 241.9 to 281.6 sec); type: functional
[11] = system: Rattus norvegicus; assay: Antidepressant activity in Wistar rat assessed as immobility time at 3.0 mg/kg, po measured for 5 mins by forced swim test (reference value: 241.9 to 281.6 sec); type: functional
[12] = Oral bioavailability in Wistar rat at 10 ml/kg measured upto 24 hrs by LC-MS/MS analysis; type: ADME, organism-based; details: in vivo
[13] = AUC in Wistar rat at 10 ml/kg, po or 2 ml/kg, iv measured upto 24 hrs by LC-MS/MS analysis; type: ADME, organism-based; details: in vivo

Cytochrome P450 3A4, sequence (P08684 whole entry): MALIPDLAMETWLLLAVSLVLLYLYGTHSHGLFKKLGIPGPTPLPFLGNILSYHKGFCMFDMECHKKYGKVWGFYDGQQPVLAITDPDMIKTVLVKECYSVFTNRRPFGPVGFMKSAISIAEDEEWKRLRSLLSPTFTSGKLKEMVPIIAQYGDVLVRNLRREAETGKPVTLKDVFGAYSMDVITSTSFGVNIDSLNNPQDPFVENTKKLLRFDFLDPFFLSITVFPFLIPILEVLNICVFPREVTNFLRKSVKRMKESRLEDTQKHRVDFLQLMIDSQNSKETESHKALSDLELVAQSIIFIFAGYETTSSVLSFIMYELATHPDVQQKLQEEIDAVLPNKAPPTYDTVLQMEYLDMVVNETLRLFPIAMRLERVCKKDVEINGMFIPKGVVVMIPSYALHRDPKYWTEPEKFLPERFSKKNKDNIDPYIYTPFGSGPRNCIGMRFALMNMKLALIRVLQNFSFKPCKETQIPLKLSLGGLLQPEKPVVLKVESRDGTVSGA
Cytochrome P450 2D6, sequence (P10635 whole entry): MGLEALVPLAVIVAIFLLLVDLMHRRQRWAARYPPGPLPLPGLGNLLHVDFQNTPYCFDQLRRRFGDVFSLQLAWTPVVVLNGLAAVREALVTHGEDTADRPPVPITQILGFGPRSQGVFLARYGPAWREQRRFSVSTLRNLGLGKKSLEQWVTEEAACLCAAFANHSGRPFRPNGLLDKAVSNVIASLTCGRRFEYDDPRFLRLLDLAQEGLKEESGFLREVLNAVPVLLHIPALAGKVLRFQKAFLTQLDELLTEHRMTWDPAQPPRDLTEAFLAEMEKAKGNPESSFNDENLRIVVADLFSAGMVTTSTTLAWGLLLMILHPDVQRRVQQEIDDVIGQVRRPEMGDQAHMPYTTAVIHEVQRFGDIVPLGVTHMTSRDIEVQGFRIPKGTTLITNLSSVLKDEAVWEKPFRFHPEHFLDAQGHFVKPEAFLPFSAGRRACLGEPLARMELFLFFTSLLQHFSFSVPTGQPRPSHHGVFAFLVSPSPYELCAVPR
Neuronal acetylcholine receptor; alpha4/beta2, sequence (P17787 whole entry): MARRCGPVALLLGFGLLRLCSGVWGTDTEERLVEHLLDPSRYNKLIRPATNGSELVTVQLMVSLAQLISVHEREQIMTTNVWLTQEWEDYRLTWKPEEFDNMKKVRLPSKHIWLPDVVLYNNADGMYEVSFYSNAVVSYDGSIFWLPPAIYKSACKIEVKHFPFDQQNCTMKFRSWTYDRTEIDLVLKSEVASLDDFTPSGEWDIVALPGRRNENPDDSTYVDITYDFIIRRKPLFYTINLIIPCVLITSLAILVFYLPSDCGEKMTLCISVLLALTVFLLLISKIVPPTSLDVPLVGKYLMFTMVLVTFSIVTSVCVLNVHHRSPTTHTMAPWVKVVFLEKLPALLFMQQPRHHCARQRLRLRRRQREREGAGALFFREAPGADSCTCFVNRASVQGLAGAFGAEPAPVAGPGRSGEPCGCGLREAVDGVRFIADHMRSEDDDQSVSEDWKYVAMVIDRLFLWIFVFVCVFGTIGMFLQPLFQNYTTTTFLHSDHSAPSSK
Neuronal acetylcholine receptor; alpha4/beta2, sequence (P43681 whole entry): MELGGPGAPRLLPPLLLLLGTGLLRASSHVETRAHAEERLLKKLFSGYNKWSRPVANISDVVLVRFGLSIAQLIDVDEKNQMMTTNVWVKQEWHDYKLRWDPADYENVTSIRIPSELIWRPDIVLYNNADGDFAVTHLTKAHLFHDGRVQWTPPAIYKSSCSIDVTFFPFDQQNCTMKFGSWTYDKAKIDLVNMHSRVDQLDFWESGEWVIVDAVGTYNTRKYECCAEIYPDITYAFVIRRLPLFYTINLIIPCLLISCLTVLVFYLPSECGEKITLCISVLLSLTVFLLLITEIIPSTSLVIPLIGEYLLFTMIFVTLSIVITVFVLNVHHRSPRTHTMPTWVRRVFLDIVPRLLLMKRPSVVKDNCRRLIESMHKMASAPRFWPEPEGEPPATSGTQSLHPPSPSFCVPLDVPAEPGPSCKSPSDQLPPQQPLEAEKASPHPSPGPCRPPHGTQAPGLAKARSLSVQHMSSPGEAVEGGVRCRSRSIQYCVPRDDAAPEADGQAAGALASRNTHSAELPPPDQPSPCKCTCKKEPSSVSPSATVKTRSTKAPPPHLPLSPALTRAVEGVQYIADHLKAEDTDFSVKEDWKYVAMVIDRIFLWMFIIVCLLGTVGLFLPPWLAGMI
Neuronal acetylcholine receptor; alpha3/beta4, sequence (P30926 whole entry): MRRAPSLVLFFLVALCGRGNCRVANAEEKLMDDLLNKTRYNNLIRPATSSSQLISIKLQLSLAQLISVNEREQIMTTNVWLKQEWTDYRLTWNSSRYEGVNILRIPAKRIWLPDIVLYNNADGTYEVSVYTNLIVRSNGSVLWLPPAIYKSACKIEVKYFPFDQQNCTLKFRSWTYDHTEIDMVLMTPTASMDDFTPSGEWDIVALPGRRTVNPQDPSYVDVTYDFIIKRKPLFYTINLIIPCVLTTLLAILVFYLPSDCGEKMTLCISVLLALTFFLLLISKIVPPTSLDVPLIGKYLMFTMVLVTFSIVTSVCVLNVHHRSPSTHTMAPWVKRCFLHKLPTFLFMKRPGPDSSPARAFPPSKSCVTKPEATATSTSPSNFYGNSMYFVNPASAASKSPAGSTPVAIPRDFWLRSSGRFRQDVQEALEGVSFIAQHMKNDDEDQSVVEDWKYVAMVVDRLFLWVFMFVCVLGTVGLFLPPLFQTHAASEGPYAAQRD
Neuronal acetylcholine receptor; alpha3/beta4, sequence (P32297 whole entry): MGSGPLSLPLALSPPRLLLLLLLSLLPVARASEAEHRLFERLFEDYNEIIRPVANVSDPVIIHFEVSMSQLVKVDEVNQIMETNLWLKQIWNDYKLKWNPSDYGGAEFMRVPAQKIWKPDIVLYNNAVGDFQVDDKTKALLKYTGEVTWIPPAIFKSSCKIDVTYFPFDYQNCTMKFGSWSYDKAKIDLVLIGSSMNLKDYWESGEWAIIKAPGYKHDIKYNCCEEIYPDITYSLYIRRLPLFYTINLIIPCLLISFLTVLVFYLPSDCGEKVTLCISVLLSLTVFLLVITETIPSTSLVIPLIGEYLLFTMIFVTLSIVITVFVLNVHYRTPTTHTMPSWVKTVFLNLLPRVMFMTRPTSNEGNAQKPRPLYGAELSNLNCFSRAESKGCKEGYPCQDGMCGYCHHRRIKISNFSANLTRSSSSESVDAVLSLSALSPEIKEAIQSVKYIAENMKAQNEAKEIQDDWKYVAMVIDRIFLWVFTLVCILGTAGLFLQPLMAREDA

Cc1ccc(OC[C@@H]2C[C@@H]3C[C@@H]3N2)cn1
Ki [1]: 1.38 nM

Fc1ccc(OC[C@@H]2C[C@@H]3C[C@@H]3N2)cn1
Ki [1]: 1.2 nM

C[C@@]12C[C@@H]1CC(COc1cccnc1)N2 (stereo partly specified)
Ki [1]: 3.6 nM

Clc1ccc(OC[C@@H]2C[C@H]3C[C@H]3N2)nn1
Ki [1]: 4740 nM

CN1[C@H](COc2cncc(Cl)c2)C[C@H]2C[C@H]21
Ki [1]: 0.37 nM

Cl.c1cncc(OC[C@@H]2CC[C@H]3C[C@H]3N2)c1
Ki [2]: 68.4 nM | Cmax [3]: 665 ng/mL | Ki [1]: 11.4 nM | IC50 [4]: > 45000 nM | IC50 [5]: > 45000 nM | metabolised at 0.5 h [6]: 53.1% | metabolised at 0.5 h [7]: 17% | Kp at 24 h [8]: 0.32 | half-life [9]: 0.6 min

FC(F)(F)c1ccc(OC[C@@H]2C[C@H]3C[C@H]3N2)cn1
Ki [1]: 768 nM

OCCCCC#Cc1cncc(OC[C@@H]2C[C@H]3C[C@H]3N2)c1
Ki [1]: 2.7 nM

CC(=O)N1[C@H](COc2ccc(Cl)nc2)C[C@H]2C[C@H]21
Ki [1]: > 10000 nM

Cc1ncccc1OC[C@@H]1C[C@H]2C[C@H]2N1.Cl
Time [10]: 198.8 s | Ki [1]: > 10000 nM | Time [11]: 204.8 s

Cc1ccc(OC[C@@H]2C[C@H]3C[C@H]3N2)cn1
Ki [1]: 26.2 nM

C[C@@]12C[C@@H]1CC(COc1cccnc1Cl)N2 (stereo partly specified)
Ki [1]: > 10000 nM

CN1[C@H](COc2cccnc2)C[C@H]2C[C@H]21
Ki [1]: 5.5 nM

COc1ccc(OC[C@@H]2C[C@@H]3C[C@@H]3N2)cn1
Ki [1]: 4.7 nM

Cc1ncccc1OC[C@@H]1CCCN1 [POZANICLINE]
Ki [2]: > 10000 nM

Cl.Fc1ccc(OC[C@@H]2C[C@H]3C[C@H]3N2)cn1
Ki [2]: > 10000 nM | Time [10]: 263.5 s | Cmax [3]: 3760 ng/mL | Ki [1]: 3.9 nM | bioavailability [12]: 96% | IC50 [4]: > 45000 nM | IC50 [5]: > 45000 nM | Time [11]: 259.6 s | AUC at 24 h [13]: 15600 ng·h/mL | metabolised at 0.5 h [6]: 10.7% | metabolised at 0.5 h [7]: 5.1% | Kp at 24 h [8]: 2.38 | half-life [9]: 241 min

Fc1ncccc1OC[C@@H]1C[C@H]2C[C@H]2N1
Ki [1]: 17.4 nM

CN1[C@H](COc2ccc(F)nc2)C[C@H]2C[C@H]21
Ki [1]: 1.1 nM

Cl.Clc1ccc(OC[C@@H]2CC[C@H]3C[C@H]3N2)cn1
Ki [2]: > 10000 nM | Time [10]: 264.9 s | Cmax [3]: 3340 ng/mL | Ki [1]: 20.5 nM | bioavailability [12]: 48% | IC50 [4]: 79000 nM | IC50 [5]: > 45000 nM | Time [11]: 238.6 s | AUC at 24 h [13]: 4480 ng·h/mL | metabolised at 0.5 h [6]: 98.9% | metabolised at 0.5 h [7]: 72.8% | Kp at 24 h [8]: 0.16 | half-life [9]: 40.8 min

Clc1cncc(OC[C@]23C[C@H]2CCN3)c1
Ki [1]: 827 nM

Cl.Clc1cncc(OC[C@@H]2C[C@H]3C[C@H]3N2)c1
Ki [2]: > 10000 nM | Time [10]: 241.7 s | Cmax [3]: 949 ng/mL | Ki [1]: 0.19 nM | bioavailability [12]: 50% | IC50 [4]: > 45000 nM | IC50 [5]: > 45000 nM | Time [11]: 249.9 s | AUC at 24 h [13]: 1190 ng·h/mL | metabolised at 0.5 h [6]: 40.7% | metabolised at 0.5 h [7]: 40.4% | Kp at 24 h [8]: 3.79 | half-life [9]: 64.2 min

Cc1ccc(OC[C@@H]2C[C@H]3C[C@H]3N2C)cn1
Ki [1]: 20 nM

c1cc(OC[C@@H]2C[C@H]3C[C@H]3N2)ccn1
Ki [1]: > 10000 nM

c1cnc(OC[C@@H]2C[C@H]3C[C@H]3N2)cn1
Ki [1]: > 10000 nM

Clc1cc(OC[C@@H]2C[C@H]3C[C@H]3N2)c(Cl)nc1Cl
Ki [1]: 265 nM

Brc1cncc(OC[C@@H]2C[C@@H]3C[C@@H]3N2)c1
Ki [1]: 2.9 nM

Clc1cncc(OC[C@@H]2CC[C@H]3C[C@H]3N2)c1
Ki [1]: 31.3 nM

Clc1ncccc1OC[C@@H]1CC[C@H]2C[C@H]2N1
Ki [1]: > 10000 nM

Cc1nnc(-c2cncc(OC[C@@H]3C[C@H]4C[C@H]4N3)c2)o1
Ki [1]: 407 nM

Clc1cc(OC[C@@H]2C[C@H]3C[C@H]3N2)cnc1Cl
Ki [1]: 149 nM
